Experiments:
[1] = tested on: NLRP3 inflammasome pathway (IL-1β); test: PBMC assay: IL-1β release after LPS stimulation; type: cell-based; conditions: human PBMCs, 100 ng/ml LPS for 6 hrs, MSD
Procedure: The activity of a compound according to the present invention can be assessed by in vitro methods.
(§1) Peripheral venous blood was collected from healthy individuals and human peripheral blood mononuclear cells (PBMCs) were isolated from blood by Ficoll-Histopaque (Sigma-Aldrich, A0561) density gradient centrifugation. After isolation, PBMCs were stored in liquid nitrogen for later use. Upon thawing, PBMC cell viability was determined in growth medium (RPMI media supplemented with 10% fetal bovine serum, 1% Pen-Strep and 1% L-glutamine). […] PBMCs were added at a density of 7.5×10^4 cells per well and incubated for 30 min in a 5% CO2 incubator at 37° C. LPS stimulation was performed by addition of 100 ng/ml LPS (final concentration, Invivogen, tlrl-smlps) for 6 hrs followed by collection of cellular supernatant and the analysis of IL-1β (μM) and TNF cytokines levels (μM) via MSD technology according to manufacturers' guidelines (MSD, K151A0H).

TNF = test: PBMC assay: TNF cytokine level after LPS stimulation; type: cell-based; conditions: human PBMCs, 100 ng/ml LPS for 6 hrs, MSD, read-out: TNFα EC50
Procedure: as §1

| IC50 [1] | EC50 (TNF) | Compound |
| --- | --- | --- |
| > 20 µM | > 20 µM | Cc1nnc2n1C[C@H](NC(=O)Cc1nn(C(C)C)c3cc(C(F)(F)F)ccc3c1=O)CC2 (single isomer, unassigned) [F-12] |
| 2.7 µM | > 20 µM | Cc1nnc2n1C[C@@H](NC(=O)Cc1nn(C(C)C)c3cc(C(F)(F)F)ccc3c1=O)CC2 (single isomer, unassigned) [F-13] |
| > 20 µM | > 20 µM | CCN1CC[C@@H](C)[C@@H](NC(=O)Cc2nn(C(C)C)c3cc(C(F)(F)F)ccc3c2=O)C1 (single isomer, unassigned) [F-88] |
| 4.97 µM | > 20 µM | CCN1CC[C@H](C)[C@H](NC(=O)Cc2nn(C(C)C)c3cc(C(F)(F)F)ccc3c2=O)C1 (single isomer, unassigned) [F-103] |
| 0.123 µM | > 20 µM | CC(C)n1nc(CC(=O)N[C@H]2C[C@@](C)(O)C2)c(=O)c2ccc(Br)cc21 [F-3] |
| 0.071 µM | 9.56 µM | CC(C)n1nc(CC(=O)Nc2ccc3nncn3c2)c(=O)c2ccc(Br)cc21 [F-4] |
| 0.45 µM | > 20 µM | CCn1nc(CC(=O)Nc2ccncn2)c(=O)c2ccc(Br)cc21 [F-7] |
| 0.66 µM | 12.9 µM | CCn1nc(CC(=O)Nc2ccncn2)c(=O)c2ccc(C3CC3)cc21 [F-8] |
| 10.2 µM | > 20 µM | CC(C)n1nc(CC(=O)NC2CC(C(C)(C)O)C2)c(=O)c2ccc(C(F)(F)F)cc21 (stereo not shown) [F-9] |
| 4.02 µM | > 20 µM | Cc1nnc2n1CC(NC(=O)Cc1nn(C(C)C)c3cc(C(F)(F)F)ccc3c1=O)CC2 (stereo not shown) [F-11] |
| 6.73 µM | > 20 µM | CC(C)n1nc(CC(=O)Nc2cc(C(F)(F)F)ncn2)c(=O)c2ccc(C(F)(F)F)cc21 [F-16] |
| > 10 µM | > 10 µM | CCn1nc(CC(=O)N[C@H]2C[C@@](C)(OC(=O)Cc3nn(CC)c4cc(Br)ccc4c3=O)C2)c(=O)c2ccc(Br)cc21 [F-23] |
| 0.79 µM | 19.9 µM | CC(C)n1nc(CC(=O)Nc2ccc3nccn3c2)c(=O)c2ccc(C(F)(F)F)cc21 [F-35] |
| 1.65 µM | > 20 µM | CC(C)n1nc(CC(=O)Nc2ccn3ncnc3c2)c(=O)c2ccc(C(F)(F)F)cc21 [F-37] |
| 1.75 µM | > 20 µM | CC(C)n1nc(CC(=O)Nc2ccn3ccnc3c2)c(=O)c2ccc(C(F)(F)F)cc21 [F-38] |
| 2.26 µM | 19.2 µM | CC(C)n1nc(CC(=O)Nc2ccc3cnnn3c2)c(=O)c2ccc(C(F)(F)F)cc21 [F-40] |
| 4.91 µM | > 20 µM | CC(C)n1nc(CC(=O)Nc2cc3c(cn2)ncn3C)c(=O)c2ccc(C(F)(F)F)cc21 [F-44] |
| 0.84 µM | 16.1 µM | CC(C)n1nc(CC(=O)Nc2ccc(=O)n(C)c2)c(=O)c2ccc(C(C)(F)F)cc21 [F-52] |
| 0.71 µM | 9.74 µM | CC(C)n1nc(CC(=O)Nc2ccc(=O)n(C)n2)c(=O)c2ccc(C(C)(F)F)cc21 [F-53] |
| 0.685 µM | > 20 µM | CC(C)n1nc(CC(=O)Nc2ccc3ncn(C)c3n2)c(=O)c2ccc(C(F)(F)F)cc21 [F-54] |

| IC50 [1] | EC50 (TNF) | Compound |
| --- | --- | --- |
| 0.62 µM | > 20 µM | O=C(Cc1nn(C2CC2)c2cc(C3CC3)ccc2c1=O)Nc1ccc2nccn2n1 [F-55] |
| 0.53 µM | 18.5 µM | CCn1nc(CC(=O)Nc2ccc3nncn3n2)c(=O)c2ccc(C(F)(F)F)cc21 [F-56] |
| 0.37 µM | > 20 µM | O=C(Cc1nn(C2CC2)c2cc(C3CC3)ccc2c1=O)Nc1ccc2nncn2c1 [F-59] |
| 0.27 µM | > 20 µM | O=C(Cc1nn(C2CC2)c2cc(C(F)(F)F)ccc2c1=O)Nc1ccc2nncn2c1 [F-63] |
| 0.24 µM | 8.36 µM | CCn1nc(CC(=O)Nc2ccc3nccn3n2)c(=O)c2ccc(C(C)(F)F)cc21 [F-65] |
| 0.166 µM | 17.4 µM | CCn1nc(CC(=O)Nc2ccc3nncn3c2)c(=O)c2ccc(C(C)C)cc21 [F-69] |
| 0.096 µM | 6.23 µM | CC(F)(F)c1ccc2c(=O)c(CC(=O)Nc3ccc4nncn4n3)nn(C3CC3)c2c1 [F-72] |
| 0.06 µM | > 20 µM | CCn1nc(CC(=O)Nc2ccc3nncn3n2)c(=O)c2ccc(Br)cc21 [F-73] |
| – | 16.6 µM | CC(C)n1nc(CC(=O)Nc2ccncn2)c(=O)c2ccc(C3CC3)cc21 [F-79, 2-(7-cyclopropyl-1-isopropyl-4-oxo-1,4-dihydrocinnolin-3-yl)-N-(pyrimidin-4-yl)acetamide] |
| 1.21 µM | > 20 µM | CC(C)n1nc(CC(=O)N[C@H]2C[C@@](C)(O)C2)c(=O)c2ccc(C3CC3)cc21 [F-80] |
| 0.166 µM | 7.11 µM | CC(C)n1nc(CC(=O)Nc2ccc3nncn3c2)c(=O)c2ccc(C3CC3)cc21 [F-81] |
| 0.18 µM | > 20 µM | CCn1nc(CC(=O)Nc2ccc3nncn3c2)c(=O)c2ccc(C3CC3)cc21 [F-82] |
| 1.15 µM | > 20 µM | CCn1nc(CC(=O)N[C@H]2C[C@@](C)(O)C2)c(=O)c2ccc(C3CC3)cc21 [F-83] |
| > 20 µM | > 20 µM | CC(C)n1nc(CC(=O)Nc2ccc(C(F)(F)F)nn2)c(=O)c2ccc(C(F)(F)F)cc21 [F-84, 2-(1-isopropyl-4-oxo-7-(trifluoromethyl)-1,4-dihydrocinnolin-3-yl)-N-(6-(trifluoromethyl)pyridazine-3-yl)acetamide] |
| 13.4 µM | > 20 µM | CC(C)n1nc(CC(=O)Nc2ccc(C(F)F)nn2)c(=O)c2ccc(C(F)(F)F)cc21 [F-87] |
| > 20 µM | > 20 µM | CC(C)n1nc(CC(=O)Nc2nc3ccc(Cl)cc3n2C)c(=O)c2ccc(C(F)(F)F)cc21 [F-89] |
| > 20 µM | > 20 µM | CC(C)n1nc(CC(=O)Nc2nc3cc(Br)ccc3n2C)c(=O)c2ccc(C(F)(F)F)cc21 [F-90] |
| 6.03 µM | > 20 µM | CC(C)n1nc(CC(=O)Nc2nc3cc(Cl)ccc3o2)c(=O)c2ccc(C(F)(F)F)cc21 [F-102] |
| 2.4 µM | > 20 µM | CCS(=O)(=O)c1ccc2oc(NC(=O)Cc3nn(C(C)C)c4cc(C(F)(F)F)ccc4c3=O)nc2c1 [F-105] |
| 0.99 µM | > 20 µM | O=C(Cc1nn(C2CC2)c2cc(C3CC3)ccc2c1=O)Nc1cn2cnnc2cn1 [F-109] |

| IC50 [1] | EC50 (TNF) | Compound |
| --- | --- | --- |
| 0.53 µM | > 20 µM | CC(C)n1nc(CC(=O)Nc2cn3cnnc3cn2)c(=O)c2ccc(C(F)(F)F)cc21 [F-112] |
| 3.8 µM | > 20 µM | CC(C)n1nc(CC(=O)Nc2cn3cc(Br)ncc3n2)c(=O)c2ccc(C(F)(F)F)cc21 [F-116, N-(6-bromoimidazo[1,2-a]pyrazin-2-yl)-2-(1-isopropyl-4-oxo-7-(trifluoromethyl)-1,4-dihydrocinnolin-3-yl)acetamide] |
| 0.835 µM | > 20 µM | CC(C)n1nc(CC(=O)Nc2nc3c(Cl)cccn3n2)c(=O)c2ccc(C(F)(F)F)cc21 [F-117] |
| 1.61 µM | > 10 µM | CC(C)n1nc(CC(=O)Nc2nc3ccc(Br)nn3n2)c(=O)c2ccc(C(F)(F)F)cc21 [F-118] |
| 2.18 µM | > 20 µM | COc1ccc2nc(NC(=O)Cc3nn(C(C)C)c4cc(C(F)(F)F)ccc4c3=O)nn2c1 [F-119] |
| 11.6 µM | > 20 µM | CC(C)n1nc(CC(=O)Nc2nc3nccc(C4CC4)n3n2)c(=O)c2ccc(C(F)(F)F)cc21 [F-120] |
| 6.87 µM | > 20 µM | CC(C)n1nc(CC(=O)Nc2nc3ccc(C(F)(F)F)cn3n2)c(=O)c2ccc(C(F)(F)F)cc21 [F-121] |
| 0.354 µM | > 20 µM | Cc1ccn2nc(NC(=O)Cc3nn(C(C)C)c4cc(C(F)(F)F)ccc4c3=O)nc2c1 [F-122] |
| 1.97 µM | > 20 µM | CC(C)n1nc(CC(=O)Nc2cn3cccnc3n2)c(=O)c2ccc(C(F)(F)F)cc21 [F-123] |
| 0.123 µM | > 20 µM | CC(C)n1nc(CC(=O)Nc2nc3cnccn3n2)c(=O)c2ccc(C(F)(F)F)cc21 [F-124] |
| 2.59 µM | > 20 µM | CC(C)n1nc(CC(=O)Nc2cc3ncccn3n2)c(=O)c2ccc(C(F)(F)F)cc21 [F-125] |
| 5.62 µM | > 20 µM | CC(C)n1nc(CC(=O)Nc2cn3ccncc3n2)c(=O)c2ccc(C(F)(F)F)cc21 [F-126] |
| 4.35 µM | > 20 µM | CC(C)n1nc(CC(=O)Nc2nc3cccnc3o2)c(=O)c2ccc(C(F)(F)F)cc21 [F-127] |
| 0.66 µM | > 20 µM | Cc1ccn2nc(NC(=O)Cc3nn(C(C)C)c4cc(C(F)(F)F)ccc4c3=O)nc2n1 [F-128] |
| 3.23 µM | > 20 µM | CC(C)n1nc(CC(=O)Nc2nc3ncc(Br)cn3n2)c(=O)c2ccc(C(F)(F)F)cc21 [F-129] |
| 0.86 µM | 11.2 µM | CC(C)n1nc(CC(=O)Nc2cc(F)[nH]c(=O)c2)c(=O)c2ccc(C(F)(F)F)cc21 [F-130, N-(6-fluoro-2-oxo-1,2-dihydropyridin-4-yl)-2-(1-isopropyl-4-oxo-7-(trifluoromethyl)-1,4-dihydrocinnolin-3-yl)acetamide] |
| 0.656 µM | > 20 µM | CC(C)n1nc(CC(=O)Nc2ccc3nc(C(F)(F)F)cn3c2)c(=O)c2ccc(C(F)(F)F)cc21 [F-131] |
| 0.16 µM | 15.6 µM | CC(C)n1nc(CC(=O)Nc2ccc3nncn3n2)c(=O)c2ccc(C3CC3)cc21 [F-133, N-([1,2,4]triazolo[4,3-b]pyridazine-6-yl)-2-(7-cyclopropyl-1-isopropyl-4-oxo-1,4-dihydrocinnolin-3-yl)acetamide] |

— patent US20230391756A1, “NEW COMPOUND” (JANSSEN PHARMACEUTICA NV, priority 2020, published 2023)
